As a reminder, the IC50 is the concentration that inhibits the measured activity by half. A high value points to weaker potency in that assay.

One experiment deals with Integrin alpha-V/beta-5 (Homo sapiens, UniProt P06756+P18084). The experiment can be described thus: Displacement of [125I]Echistatin from human placental integrin alpha-V-beta-5 receptor.
Another experiment addresses Integrin alpha-V/beta-3 (Homo sapiens, UniProt P05106+P06756). Kind of experiment: Displacement of [125I]echistatin from human placental integrin alphaVbeta3 receptor. (Displacement assays read how much labelled ligand stays bound in the presence of the test substance.)

Molecules are shown by their SMILES.

Sequence of Integrin alpha-V/beta-3 (P05106 27-788 limits assumed): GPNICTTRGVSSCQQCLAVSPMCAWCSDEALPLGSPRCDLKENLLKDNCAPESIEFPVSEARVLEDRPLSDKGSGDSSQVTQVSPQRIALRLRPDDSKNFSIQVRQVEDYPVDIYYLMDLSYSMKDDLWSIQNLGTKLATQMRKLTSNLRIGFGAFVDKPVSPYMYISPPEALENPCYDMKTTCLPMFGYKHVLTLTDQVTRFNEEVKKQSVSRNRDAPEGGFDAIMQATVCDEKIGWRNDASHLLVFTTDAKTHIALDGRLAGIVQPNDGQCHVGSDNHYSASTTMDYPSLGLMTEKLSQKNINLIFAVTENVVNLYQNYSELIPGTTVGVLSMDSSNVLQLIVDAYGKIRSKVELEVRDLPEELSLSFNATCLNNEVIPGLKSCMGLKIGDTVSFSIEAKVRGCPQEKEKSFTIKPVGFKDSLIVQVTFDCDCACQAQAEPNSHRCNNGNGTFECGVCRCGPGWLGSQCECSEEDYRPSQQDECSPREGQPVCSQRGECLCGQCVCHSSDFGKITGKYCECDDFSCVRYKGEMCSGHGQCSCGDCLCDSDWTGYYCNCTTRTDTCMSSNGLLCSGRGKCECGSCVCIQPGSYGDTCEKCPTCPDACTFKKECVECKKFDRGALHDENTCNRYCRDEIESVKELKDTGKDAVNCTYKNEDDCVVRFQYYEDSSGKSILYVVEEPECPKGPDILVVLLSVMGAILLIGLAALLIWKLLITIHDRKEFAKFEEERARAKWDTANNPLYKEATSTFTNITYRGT
Sequence of Integrin alpha-V/beta-3 (P06756 31-889 limits assumed): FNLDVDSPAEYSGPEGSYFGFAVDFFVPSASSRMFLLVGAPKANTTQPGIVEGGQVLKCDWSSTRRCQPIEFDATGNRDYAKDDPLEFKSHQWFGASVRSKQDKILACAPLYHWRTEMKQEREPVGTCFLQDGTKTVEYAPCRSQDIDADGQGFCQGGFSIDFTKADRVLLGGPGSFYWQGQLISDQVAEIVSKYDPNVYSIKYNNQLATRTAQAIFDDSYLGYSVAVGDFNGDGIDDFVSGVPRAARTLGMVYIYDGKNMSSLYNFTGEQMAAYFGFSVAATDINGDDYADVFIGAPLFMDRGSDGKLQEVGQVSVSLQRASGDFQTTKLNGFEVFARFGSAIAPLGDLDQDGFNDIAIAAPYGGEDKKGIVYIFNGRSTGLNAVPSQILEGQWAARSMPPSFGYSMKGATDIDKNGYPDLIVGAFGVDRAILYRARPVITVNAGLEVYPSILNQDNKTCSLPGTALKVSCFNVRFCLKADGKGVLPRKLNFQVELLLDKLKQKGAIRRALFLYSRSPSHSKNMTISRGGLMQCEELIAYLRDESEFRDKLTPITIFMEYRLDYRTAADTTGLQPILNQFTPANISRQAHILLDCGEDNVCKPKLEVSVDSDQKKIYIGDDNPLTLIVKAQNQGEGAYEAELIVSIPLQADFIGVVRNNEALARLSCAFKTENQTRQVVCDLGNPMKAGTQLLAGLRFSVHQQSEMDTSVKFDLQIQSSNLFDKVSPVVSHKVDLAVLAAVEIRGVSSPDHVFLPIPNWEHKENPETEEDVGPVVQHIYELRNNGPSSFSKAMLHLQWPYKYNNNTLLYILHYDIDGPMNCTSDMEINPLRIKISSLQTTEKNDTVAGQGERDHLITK
Sequence of Integrin alpha-V/beta-3 (P06756 891-1048 limits assumed): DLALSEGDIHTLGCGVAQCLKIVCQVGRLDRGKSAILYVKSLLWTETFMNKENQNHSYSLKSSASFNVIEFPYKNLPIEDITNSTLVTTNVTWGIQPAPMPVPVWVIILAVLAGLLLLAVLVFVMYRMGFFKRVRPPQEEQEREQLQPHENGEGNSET
Sequence of Integrin alpha-V/beta-5 (P06756 31-889 limits assumed): as the sequence (P06756 31-889 limits assumed) above
Sequence of Integrin alpha-V/beta-5 (P06756 891-1048 limits assumed): as the sequence (P06756 891-1048 limits assumed) above
Sequence of Integrin alpha-V/beta-5 (P18084 24-799 limits assumed): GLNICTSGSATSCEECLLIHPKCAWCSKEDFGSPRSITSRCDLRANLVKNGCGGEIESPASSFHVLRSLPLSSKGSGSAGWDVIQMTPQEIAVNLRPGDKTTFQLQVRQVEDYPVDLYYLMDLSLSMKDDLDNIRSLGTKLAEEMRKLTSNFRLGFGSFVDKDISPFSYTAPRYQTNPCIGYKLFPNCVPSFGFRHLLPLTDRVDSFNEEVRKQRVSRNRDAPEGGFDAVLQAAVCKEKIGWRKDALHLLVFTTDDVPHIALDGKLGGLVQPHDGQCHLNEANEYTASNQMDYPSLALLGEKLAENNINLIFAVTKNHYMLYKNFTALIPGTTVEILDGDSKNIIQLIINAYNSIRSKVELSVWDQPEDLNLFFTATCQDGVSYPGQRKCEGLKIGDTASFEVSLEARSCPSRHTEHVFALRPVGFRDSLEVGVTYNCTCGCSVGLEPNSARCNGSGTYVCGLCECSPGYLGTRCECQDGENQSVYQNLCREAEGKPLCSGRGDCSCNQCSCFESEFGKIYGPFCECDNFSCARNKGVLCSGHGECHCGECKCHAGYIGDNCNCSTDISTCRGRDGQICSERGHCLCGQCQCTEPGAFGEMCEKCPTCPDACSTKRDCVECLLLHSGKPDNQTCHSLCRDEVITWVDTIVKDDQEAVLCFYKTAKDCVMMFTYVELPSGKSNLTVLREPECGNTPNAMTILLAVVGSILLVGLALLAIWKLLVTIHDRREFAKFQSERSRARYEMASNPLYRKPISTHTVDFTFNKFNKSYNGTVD

In the case of `N=C(N)NCCC[C@@H]1NC(=O)[C@@]23CCCN2C(=O)[C@H](C3)NC(=O)[C@H](CC(=O)O)NC(=O)CNC1=O`, the IC50 on Integrin alpha-V/beta-5 was determined as 14.3 nM; on Integrin alpha-V/beta-3 it was 34.4 nM.
Consider `NC(N)=NCCC[C@@H]1NC(=O)[C@]23CCCN2C(=O)[C@@H](C3)NC(=O)[C@H](CC(=O)O)NC(=O)CNC1=O`, for which the IC50 at Integrin alpha-V/beta-5 was determined as 7960 nM; on Integrin alpha-V/beta-3 it was 2150 nM.

The values above are taken from ChEMBL document CHEMBL1144770, “Synthesis, SAR and in vitro evaluation of new cyclic Arg-Gly-Asp pseudopentapeptides containing a s-cis peptide bond as integrin alphavbeta3 and alphavbeta5 ligands” (Bioorg Med Chem, 2008).
